In patent US11198710B2, “Transgenic plant having herbicide resistance” (priority 2016, dated 2021):

What was measured:
[1] = system: rice plants comprising the TaQ8GTC1-R gene introduced therein; assay: Sensitivity of rice plants comprising the TaQ8GTC1-R gene to pyroxasulfone, gellan gum medium; assay type: in vivo; conditions: strains KLB-872#3-11 and KLB-872#2-4; 10^−8 to 10^−5M
Protocol: Pyroxasulfone resistance of 2 rice plants strains (KLB-872#3-11 and KLB-872#2-4) was examined via the germination growth inhibitory test using a gellan gum medium. At the outset, Hoagland's mix and 3 g of gellan gum were suspended in 1 liter of distilled water and thoroughly dissolved therein by heating in a microwave. A fraction of the resultant (15 ml) was poured into a tubular bottle before it was cooled (30 ml was injected into the plate). Pyroxasulfone (acetone solution) was simultaneously added at the time of filling of gellan gum medium into the tubular bottle or plate, followed by thorough mixing. Rice hulls were soaked in a 50-fold diluted sodium hypochlorite solution (antiformin) (Wako) for approximately 20 minutes and then thoroughly washed with water. Sterilized seeds were soaked in distilled water and allowed to stand at 27° C. for germination (for approximately 2 days). […] Thereafter, rice seeds that were determined to have BS resistance with the use of root elongation as the indicator were transferred to gellan gum media containing pyroxasulfone (tubal bottles) at the final concentrations of 10^−8, 10^−7, 10^−6, and 10^−5M, respectively. […] These samples were grown at 27° C. under fluorescent light illumination (14 hours of a light period and 10 hours of a dark period) for 4 to 5 days, and the plant heights were then measured. […]

[2] = system: ZmQ9ZP61; assay: Pyroxasulfone metabolizing activity based on fatty acid content in cultured rice cells; assay type: cell-based, maize; conditions: cultured rice cells with ZmQ9ZP61 gene; 10^−7M or 10^−6M pyroxasulfone, liquid culture 14 to 17 days
Protocol: (§1) The transgenic cultured rice cells thus prepared were used for liquid culture in the presence of pyroxasulfone. Pyroxasulfone was added to the liquid medium as an acetone solution. The final acetone concentration was 0.1%. When liquid culture was carried out, cultured rice cells transformed with KLB-279 (a plasmid comprising Act1p (rice actin 1 promoter)::sGFP::NOSt incorporated into the MCS of PalSelect R-4) were designated as the control samples. Liquid culture was carried out as described below.
(§2) A bag of mixed salts for Murashige-Skoog medium (MS inorganic salts), 1 ml of 10 mg/ml thiamin hydrochloride, 1 ml of 5 mg/ml nicotinic acid, 1 ml of 10 mg/ml pyridoxine hydrochloride, 1 ml of 2 mg/ml glycine, 1 ml of 0.2 mg/ml 2,4-D, 30 g of sucrose, and 1 ml of 50 mg/ml myo-inositol were added into a 1-liter beaker, a pH was adjusted to 5.7, and the volume was precisely adjusted to 1,000 nil with the addition of distilled water, followed by autoclave. After 0.05 ml of pyroxasulfone was added to a 200-ml erlenmeyer flask containing 50 ml of the liquid medium, about 0.5 g of the control cultured rice cells proliferated in a solid medium of the same composition as described above further supplemented with 3 g of gellan gum and 0.25 μM BS or about 0.5 g of the transgenic cultured rice cells prepared as described above were added to the liquid medium, and culture was carried out for 14 to 17 days. After the completion of culture, the liquid medium was removed, and cultured rice cells were recovered.
(§3) One month after the transformation, cultured rice cells comprising the GST genes introduced therein were selected with the use of 0.25 μM bispyribac sodium (BS). Subsequently, the fresh cultured rice cells proliferated in the selection medium were mass-cultured in a conical beaker for approximately 1 month and then used for liquid culture in a pyroxasulfone-containing medium. When conducting liquid culture, the concentration was adjusted to 10^−7M or 10^−6M, so that pyroxasulfone would influence the fatty acid content in the cultured rice cells (Y. Tanetani et al., Pestic. Biochem. Physiol., 95, 47-55, 2009). […]
(§4) Fatty acid was extracted using undecenoic acid (C11:1) as an internal standard. As analytical standards, Supelco FAME mix containing C14:0, C16:0, C16:1, C18:0, C18:1, C18:2, C18:3, C20:0, C22:0, C22:1, and C24:0 and other fatty acid methyl esters (C11:1, C15:0, C20:1, and C26:0) were used, and calibration curves thereof were prepared, followed by quantification. […] Quantitative and qualitative analyses were carried out as methyl esters, although fatty acid methyl esters were converted into fatty acids at the time of quantitative analysis. […]

[3] = target: T1, ZmM16901 (Zea mays, UniProt P12653); assay: as above; assay type: cell-based, maize; conditions: cultured rice cells with ZmM16901 gene; 10^−7M or 10^−6M pyroxasulfone, liquid culture 14 to 17 days
T1 construct: expressed in transfected cells; host or cells: cultured rice cells (Agrobacterium EHA105, PalSelect R-4-GST)
T1 sequence (P12653 whole entry): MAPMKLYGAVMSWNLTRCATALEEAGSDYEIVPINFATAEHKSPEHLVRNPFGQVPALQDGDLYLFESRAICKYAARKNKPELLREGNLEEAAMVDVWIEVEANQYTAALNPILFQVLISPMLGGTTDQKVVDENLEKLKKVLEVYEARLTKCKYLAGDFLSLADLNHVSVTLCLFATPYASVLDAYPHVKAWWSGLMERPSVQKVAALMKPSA
Protocol: as §1, §2, §3, §4

[4] = system: ZmB6T8R4; assay: as above; assay type: cell-based, maize; conditions: cultured rice cells with ZmB6T8R4 gene; 10^−7M or 10^−6M pyroxasulfone, liquid culture 14 to 17 days
Protocol: as §1, §2, §3, §4

[5] = system: ZmY12862; assay: as above; assay type: cell-based, maize; conditions: cultured rice cells with ZmY12862 gene; 10^−7M or 10^−6M pyroxasulfone, liquid culture 14 to 17 days
Protocol: as §1, §2, §3, §4

## Cn1nc(C(F)(F)F)c(CS(=O)(=O)C2=NOC(C)(C)C2)c1OC(F)F [Pyroxasulfone, 3-[5-(difluoromethoxy)-1-methyl-3-(trifluoromethyl)pyrazol-4-ylmethylsulfonyl]-4,5-dihydro-5,5-dimethyl-1,2-oxazole]
[1]
  sensitivity to pyroxasulfone: sensitivity equivalent to that of wild-type plants
[2]
  pyroxasulfone metabolizing activity (C15:0 and VLCFA contents): no pyroxasulfone metabolizing activity
[3]
  pyroxasulfone metabolizing activity (C15:0 and VLCFA contents): no pyroxasulfone metabolizing activity
[4]
  pyroxasulfone metabolizing activity (C15:0 and VLCFA contents): no pyroxasulfone metabolizing activity
[5]
  pyroxasulfone metabolizing activity (C15:0 and VLCFA contents): no pyroxasulfone metabolizing activity
